Measured values: patent US9469650B2, “Melampomagnolide B derivatives” (BOARD OF TRUSTEES OF THE UNIVERSITY OF ARKANSAS, priority 2013, dated 2016)

Tests used:
OVCAR-8 = assay: panel of 60 human tumor cell lines, growth inhibition (Ovarian Cancer); settings: Homo sapiens; for GI50: OVCAR-8; for CC50: OVCAR-8, read-out: LC50; for IC (TGI): OVCAR-8, read-out: TGI
SK-OV-3 = assay: as above; settings: Homo sapiens; for GI50: SK-OV-3; for CC50: SK-OV-3, read-out: LC50; for IC (TGI): SK-OV-3, read-out: TGI
HCT-15 = assay: panel of 60 human tumor cell lines, growth inhibition (Colon Cancer); settings: Homo sapiens; for GI50: HCT-15; for CC50: HCT-15, read-out: LC50; for IC (TGI): HCT-15, read-out: TGI
MCF7 = assay: panel of 60 human tumor cell lines, growth inhibition (Breast Cancer); settings: Homo sapiens; for GI50: MCF7, MCF7; for CC50: MCF7, read-out: LC50; for IC (TGI): MCF7, read-out: TGI
CCRF-CEM = assay: panel of 60 human tumor cell lines, growth inhibition (Leukemia); settings: Homo sapiens; for CC50: read-out: LC50; for IC (TGI): read-out: TGI
BT-549 = assay: panel of 60 human tumor cell lines, growth inhibition (Breast Cancer); settings: Homo sapiens; for GI50: BT-549; for CC50: BT-549, read-out: LC50; for IC (TGI): BT-549, read-out: TGI
OVCAR-3 = assay: panel of 60 human tumor cell lines, growth inhibition (Ovarian Cancer); settings: for GI50 / CC50 / IC (TGI): Homo sapiens; for GI50 / Percent Growth: OVCAR-3; for CC50: OVCAR-3, read-out: LC50; for IC (TGI): OVCAR-3, read-out: TGI
IGROV1 = assay: as above; settings: Homo sapiens; for GI50: IGROV-1; for CC50: IGROV-1, read-out: LC50; for IC (TGI): IGROV-1, read-out: TGI
NCI-H23 = assay: panel of 60 human tumor cell lines, growth inhibition (Non-Small Cell Lung Cancer); settings: Homo sapiens; for GI50: NCI-H23; for CC50: NCI-H23, read-out: LC50; for IC (TGI): NCI-H23, read-out: TGI
SK-MEL-5 = assay: panel of 60 human tumor cell lines, growth inhibition (Melanoma); settings: Homo sapiens; for GI50: SK-MEL-5; for CC50: SK-MEL-5, read-out: LC50; for IC (TGI): SK-MEL-5, read-out: TGI
NCI-H522 = assay: panel of 60 human tumor cell lines, growth inhibition (Non-Small Cell Lung Cancer); settings: Homo sapiens; for GI50: NCI-H522; for CC50: NCI-H522, read-out: LC50; for IC (TGI): NCI-H522, read-out: TGI
RXF 393 = assay: panel of 60 human tumor cell lines, growth inhibition (Renal Cancer); settings: Homo sapiens; for GI50: RXF 393, RXF 393; for CC50: RXF 393, read-out: LC50; for IC (TGI): RXF 393, read-out: TGI
UACC-257 = assay: panel of 60 human tumor cell lines, growth inhibition (Melanoma); settings: for GI50 / CC50: Homo sapiens; for GI50 / TGI / Percent Growth: UACC-257; for CC50: UACC-257, read-out: LC50
A549/ATCC = assay: panel of 60 human tumor cell lines, growth inhibition (Non-Small Cell Lung Cancer); settings: Homo sapiens; for CC50: A549, read-out: LC50
TK-10 = assay: panel of 60 human tumor cell lines, growth inhibition (Renal Cancer); settings: Homo sapiens; for GI50: TK-10, TK-10; for CC50: TK-10, read-out: LC50; for IC (TGI): TK-10, read-out: TGI
MDA-MB-468 = assay: panel of 60 human tumor cell lines, growth inhibition (Breast Cancer); settings: Homo sapiens; for GI50: MDA-MB-468; for CC50: MDA-MB-468, read-out: LC50; for IC (TGI): MDA-MB-468, read-out: TGI
HOP-92 = assay: panel of 60 human tumor cell lines, growth inhibition (Non-Small Cell Lung Cancer); settings: Homo sapiens; for GI50: HOP-92, HOP-92; for CC50: HOP-92, read-out: LC50; for IC (TGI): HOP-92, read-out: TGI
COLO 205 = assay: panel of 60 human tumor cell lines, growth inhibition (Colon Cancer); settings: Homo sapiens; for GI50: COLO 205; for CC50: COLO 205, read-out: LC50; for IC (TGI): COLO 205, read-out: TGI

## C=C1C(=O)O[C@H]2[C@H]1CC/C(COC(=O)OCCCN1CCCCC1)=C\CC[C@@]1(C)O[C@@H]21 [JVM 2-26]
OVCAR-8
  GI50: 10.3 µM
  CC50: 53.3 µM
  IC (TGI): 13.5 µM
SK-OV-3
  GI50: 21 µM
  CC50: > 100 µM
  IC (TGI): 53.7 µM
HCT-15
  GI50: 2.39 µM
  CC50: 37 µM
  IC (TGI): 10.6 µM
MCF7
  GI50: 2.3 µM
  CC50: 50.8 µM
  IC (TGI): 10.7 µM
CCRF-CEM
  GI50: 1.78 µM
  CC50: 63.5 µM
  IC (TGI): 5.72 µM
BT-549
  GI50: 3.12 µM
  CC50: 38.7 µM
  IC (TGI): 15 µM
OVCAR-3
  GI50: 1.96 µM
  CC50: 22 µM
  IC (TGI): 5.88 µM
OVCAR-3; Log10 Concentration −4.0
  Percent Growth: −100%
OVCAR-3; Log10 Concentration −5.0
  Percent Growth: −24%
OVCAR-3; Log10 Concentration −6.0
  Percent Growth: 80%
OVCAR-3; Log10 Concentration −7.0
  Percent Growth: 96%
OVCAR-3; Log10 Concentration −8.0
  Percent Growth: 98%
IGROV1
  GI50: 13.2 µM
  CC50: 76.3 µM
  IC (TGI): 31.7 µM
NCI-H23
  GI50: 12.8 µM
  CC50: 67.1 µM
  IC (TGI): 29.4 µM
SK-MEL-5
  GI50: 10.6 µM
  CC50: 47.6 µM
  IC (TGI): 22.5 µM
NCI-H522
  GI50: 1.41 µM
  CC50: 7.24 µM
  IC (TGI): 3.2 µM
RXF 393
  GI50: 2.35 µM
  CC50: 34 µM
  IC (TGI): 8.65 µM
UACC-257
  GI50: 5.34 µM
  CC50: 45.6 µM
  TGI: 1.87E−5
UACC-257; Log10 Concentration −4.0
  Percent Growth: −94%
UACC-257; Log10 Concentration −5.0
  Percent Growth: 35%
UACC-257; Log10 Concentration −6.0
  Percent Growth: 90%
UACC-257; Log10 Concentration −7.0
  Percent Growth: 67%
UACC-257; Log10 Concentration −8.0
  Percent Growth: 91%
A549/ATCC
  CC50: 67.2 µM
TK-10
  GI50: 2.03 µM
  CC50: 25.5 µM
  IC (TGI): 6.82 µM
MDA-MB-468
  GI50: 0.601 µM
  CC50: 10.5 µM
  IC (TGI): 2.78 µM
HOP-92
  GI50: 1.96 µM
  CC50: 31.4 µM
  IC (TGI): 7.47 µM
COLO 205
  GI50: 1.7 µM
  CC50: 7.07 µM
  IC (TGI): 3.47 µM

## C=C1C(=O)O[C@H]2[C@H]1CC/C(COC(=O)NCCCCCCO)=C\CC[C@@]1(C)O[C@@H]21 [JVM 2-31]
OVCAR-8
  GI50: 10.2 µM
  CC50: 76 µM
  IC (TGI): 27.9 µM
SK-OV-3
  GI50: 28.6 µM
  CC50: > 100 µM
  IC (TGI): 69.9 µM
HCT-15
  GI50: 2.56 µM
  CC50: 49.5 µM
  IC (TGI): 12.1 µM
MCF7; NCI five dose
  GI50: 4.92 µM
MCF7
  CC50: 76.3 µM
  IC (TGI): 12 µM
CCRF-CEM; NCI five dose
  GI50: 2.78 µM
CCRF-CEM
  CC50: > 100 µM
  IC (TGI): 10.7 µM
BT-549
  GI50: 2.86 µM
  CC50: 43.4 µM
  IC (TGI): 17.4 µM
OVCAR-3
  GI50: 3.4 µM
  CC50: 36 µM
  IC (TGI): 12.1 µM
OVCAR-3; Log10 Concentration −4.0
  Percent Growth: −97%
OVCAR-3; Log10 Concentration −5.0
  Percent Growth: 9%
OVCAR-3; Log10 Concentration −6.0
  Percent Growth: 97%
OVCAR-3; Log10 Concentration −7.0
  Percent Growth: 111%
OVCAR-3; Log10 Concentration −8.0
  Percent Growth: 105%
IGROV1
  GI50: 17.4 µM
  CC50: 80.7 µM
  IC (TGI): 37.5 µM
NCI-H23
  GI50: 13.5 µM
  CC50: 72 µM
  IC (TGI): 31.1 µM
SK-MEL-5
  GI50: 6.8 µM
  CC50: 54.5 µM
  IC (TGI): 21.7 µM
NCI-H522
  GI50: 1.7 µM
  CC50: 8.15 µM
  IC (TGI): 3.72 µM
RXF 393; NCI five dose
  GI50: 1.24 µM
RXF 393
  CC50: 40.2 µM
  IC (TGI): 9.75 µM
UACC-257
  GI50: 8.79 µM
  CC50: 64.3 µM
UACC-257; Log10 Concentration −4.0
  Percent Growth: −73%
UACC-257; Log10 Concentration −5.0
  Percent Growth: 47%
UACC-257; Log10 Concentration −6.0
  Percent Growth: 95%
UACC-257; Log10 Concentration −7.0
  Percent Growth: 104%
UACC-257; Log10 Concentration −8.0
  Percent Growth: 102%
UACC-257; NCI five dose
  TGI: 2.47E−5
A549/ATCC; A549
  GI50: 17 µM
A549/ATCC
  CC50: 85.2 µM
A549/ATCC; A549, read-out: TGI
  IC (TGI): 38 µM
TK-10; NCI five dose
  GI50: 2.64 µM
TK-10
  CC50: 33.3 µM
  IC (TGI): 9.68 µM
MDA-MB-468
  GI50: 1.01 µM
  CC50: 35.7 µM
  IC (TGI): 5.23 µM
HOP-92; NCI five dose
  GI50: 2.77 µM
HOP-92
  CC50: 38.5 µM
  IC (TGI): 9.99 µM
COLO 205
  GI50: 2.56 µM
  CC50: 32 µM
  IC (TGI): 6.39 µM
